In the experiment the target is T1, CXCR3 (Homo sapiens, UniProt P49682).
T1 sequence (P49682 1-368): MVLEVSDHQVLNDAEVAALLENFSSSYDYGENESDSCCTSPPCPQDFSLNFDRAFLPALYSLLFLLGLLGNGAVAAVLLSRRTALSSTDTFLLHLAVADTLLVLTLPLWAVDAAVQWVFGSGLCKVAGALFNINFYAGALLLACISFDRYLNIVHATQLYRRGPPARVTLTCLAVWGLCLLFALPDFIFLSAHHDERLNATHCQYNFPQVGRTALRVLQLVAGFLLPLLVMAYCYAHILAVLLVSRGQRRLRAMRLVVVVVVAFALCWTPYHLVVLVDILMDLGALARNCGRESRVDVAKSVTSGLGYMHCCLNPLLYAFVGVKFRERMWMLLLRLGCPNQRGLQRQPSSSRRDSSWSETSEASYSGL
In words: CXCR3 Ca2+ mobilization (FLIPR), stable hCXCR3-CHO cell line, I-TAC stimulated. Type of experiment: cell-based. Also on record: host or cells: CHO cells stably expressing hCXCR3. As to conditions: hCXCR3-CHO cells, I-TAC 100 nM stimulated Ca2+ response; read-out: Ca-ITAC. The procedure:
Human chinese hamster ovary (CHO) cell line stably expressing hCXCR3 was purchased from Euroscreen (Belgium) and culture in HAM's F12 (Invitrogen) containing 10% heat inactivated fetal calf serum (Cancerra, Australia), 50 units ml−1 penicillin, 50 μml−1 streptomycin, (Invitrogen, USA) and 400 μg/ml geneticin (G418) (Calbiochem, San Diego), according to the manufacturer.
CXCR3Ca^2+ mobilization was measured using a stable hCXCR3—CHO cell line and a microtiter-plate based assay using FLIPR^TETRA™ (Molecular Devices). In more detail, cells were harvested and plated into black 384-well plates (Becton-Dickinson) at a density of 15 000 cells per well and grown in the incubator for 18 hours. On the next day the media was aspirated and replaced with the cell loading buffer (HBSS—(Invitrogen) based buffer containing calcium indicator and signal enhancer from a commercial Ca2+ assay kit (Becton Dickinson). The plates were incubated for 60 minutes in the incubator, the test compounds were added and the plates equilibrated for 20 minutes at room temperature.
Plates were placed into FLIPR and the CXCR3 agonist (I-TAC, 100 nM) stimulated fluorescence change was quantitated. The activity of CXCR3 antagonists was determined as percent of the CXCR3 ligand I-TAC in the absence of the test compounds (=100% activity).

Regarding `COc1ccc(S(=O)(=O)N(Cc2ccccc2)Cc2ccc(C(=O)NCc3ccccc3)cc2)cc1` [Example 31], the IC50 was 1.9 µM.

As to `O=C(NCc1ccccc1)c1ccc(CN(Cc2ccccc2)S(=O)(=O)c2ccc(F)cc2)cc1` [Example 32], the IC50 came to 3.9 µM.

Regarding `O=C(NCc1ccccc1)c1ccc(CN(Cc2ccc(F)cc2)S(=O)(=O)c2ccc(Cl)cc2)cc1` [Example 34, 4-{[[(4-chlorophenyl)sulfonyl](4-fluorobenzyl)amino]methyl}-N-phenyl methyl benzamide], the IC50 was 1.8 µM.

Turning to `COc1ccc(CN(Cc2ccc(C(=O)NCc3ccccc3)cc2)S(=O)(=O)c2ccc(Cl)cc2)cc1` [Example 35, 4-{[(4-Chloro-benzenesulfonyl)-(4-methoxybenzyl)-amino]-methyl}-N-phenyl methyl benzamide], the IC50 is 6 µM.

With `O=C(NCc1ccccc1)c1ccc(CN(Cc2ccccc2)S(=O)(=O)c2ccc(Cl)nc2)cc1` [Example 36], the IC50 was 0.15 µM.

For the compound `COc1cccc(CN(Cc2ccc(C(=O)NCc3ccccc3)cc2)S(=O)(=O)c2ccc(Cl)cc2)c1` [Example 38, 4-{[(4-Chloro-benzenesulfonyl)-(3-methoxybenzyl)-amino]-methyl}-N-phenyl methyl benzamide], the IC50 amounted to 10 µM.

Consider `O=C(NCC1CC1)c1ccc(CN(Cc2ccccn2)S(=O)(=O)c2ccc(Cl)c(Cl)c2)cc1` [Example 45], for which the IC50 amounted to 13 µM.

Regarding `O=C(NC1(c2ccccc2)CC1)c1ccc(CN(Cc2ccccn2)S(=O)(=O)c2ccc(Cl)c(Cl)c2)cc1` [Example 46], the IC50 was found to be 0.705 µM.

For the compound `CS(=O)(=O)NC(=O)c1ccc(CN(Cc2ccccn2)S(=O)(=O)c2ccc(Cl)cc2)cc1` [Example 48, N-(methanesulfonyl)-4{[[(4-chlorophenyl)sulfonyl](pyridin-2-ylmethyl)amino]methyl}benzamide], the IC50 was 8.3 µM.

Turning to `O=C(NS(=O)(=O)C1CC1)c1ccc(CN(Cc2ccccn2)S(=O)(=O)c2ccc(Cl)cc2)cc1` [Example 49, N-(cyclopropanesulfonyl)-4-{[[(4-chlorophenyl)sulfonyl](pyridin-2-ylmethyl)amino]methyl}benzamide], the IC50 was 5.6 µM.

On to `O=C(NS(=O)(=O)c1cccnc1)c1ccc(CN(Cc2ccccn2)S(=O)(=O)c2ccc(Cl)cc2)cc1` [Example 52, N-(3-pyridylsulfonyl)-4-{[[(4-chlorophenyl)sulfonyl](pyridin-2-ylmethyl)amino]methyl}benzamide], for which the IC50 came out at 0.285 µM.

On to `CCS(=O)(=O)NC(=O)c1ccc(CN(Cc2ccccn2)S(=O)(=O)c2ccc(Cl)cc2)cc1` [Example 55, N-(ethanesulfonyl)-4-{[[(4-chlorophenyl)sulfonyl](pyridin-2-yl-methyl)amino]methyl}benzamide], for which the IC50 was 11 µM.

In the case of `O=S(=O)(c1ccc(Cl)cc1)N(Cc1ccc(-c2nnn[nH]2)cc1)Cc1cc(Cl)ccc1F` [Example 61, 4-chloro-N-(5-chloro-2-fluorobenzyl)-N-[4-(2H-tetrazol-5-yl)benzyl]benzene sulfonamide], the IC50 amounted to 0.2 µM.

`O=S(=O)(c1ccc(Cl)cc1)N(Cc1ccc(-c2nnn[nH]2)cc1)Cc1ccc(Cl)cc1F` [Example 70, 4-chloro-N-(2-fluoro-4-chlorobenzyl)-N-[4-(2H-tetrazol-5yl)benzyl]benzene sulfonamide]: the IC50 came to 3 µM.

`O=S(=O)(c1ccc(Cl)cc1Cl)N(Cc1ccc(-c2nnn[nH]2)cc1)Cc1ccccn1` [Example 78]: the IC50 was found to be 3 µM.

Take `Cc1cc(S(=O)(=O)N(Cc2ccc(-c3nnn[nH]3)cc2)Cc2ccccn2)c(F)cc1Cl` [Example 79]: the IC50 stood at 4 µM.

For the compound `CCOc1ccc(S(=O)(=O)N(Cc2ccc(C(=O)NC3(c4cccc(C#N)c4)CC3)cc2)Cc2ccccn2)cc1` [Example 85], the IC50 amounted to 4 µM.

In the case of `CCOc1ccc(S(=O)(=O)N(Cc2ccc(C(=O)NCC(C)c3ccccc3)cc2)Cc2ccccn2)cc1` (stereo not shown) [Example 86], the IC50 stood at 1.7 µM.

Regarding `CCOc1ccc(S(=O)(=O)N(Cc2ccc(C(=O)NCCc3ccc(S(N)(=O)=O)cc3)cc2)Cc2cccnc2)cc1` [Example 95], the IC50 worked out at 2 µM.

On to `O=S(=O)(c1ccc(Cl)cc1)N(Cc1ccc(-c2nnn[nH]2)cc1)Cc1ccccc1-c1ccccc1` [Example 103], for which the IC50 was found to be 3.45 µM.

As to `O=S(=O)(c1ccc(Cl)cc1)N(Cc1ccc(-c2nnn[nH]2)cc1)Cc1ccccc1Oc1ccc(F)cc1` [Example 104], the IC50 is 1 µM.

As for `CCOc1ccc(S(=O)(=O)N(Cc2ccc(C(=O)N[C@H]3[C@@H]4CN(C(C)=O)C[C@@H]43)cc2)Cc2cccnc2)cc1` [Example 108], the IC50 is 1.8 µM.

Turning to `N#Cc1ccc(S(=O)(=O)N(Cc2ccc(C(=O)NC3(c4cccc(C#N)c4)CC3)cc2)Cc2cccnc2)cc1` [Example 111], the IC50 is 1.5 µM.

For `CC(CNC(=O)c1ccc(CN(Cc2cccnc2)S(=O)(=O)c2ccc(C#N)cc2)cc1)c1ccccc1` (stereo not shown) [Example 112], the IC50 came out at 1.25 µM.

On to `O=S(=O)(c1ccc(OC(F)(F)F)cc1)N(Cc1ccccc1)Cc1ccc(-c2nnn[nH]2)cc1` [Example 115], for which the IC50 worked out at 2 µM.

For the compound `CCOc1ccc(S(=O)(=O)N(Cc2ccc(C(=O)N[C@H]3[C@@H]4CN(C(=O)c5ccc(OC(F)(F)F)cc5)C[C@@H]43)cc2)Cc2cccnc2)cc1` [Example 116], the IC50 worked out at 2 µM.

For the compound `CCOc1ccc(S(=O)(=O)N(Cc2ccc(C(=O)N[C@H]3[C@@H]4CN(C(=O)c5ccc(OC(F)(F)F)cc5)C[C@@H]43)cc2)Cc2ccccn2)cc1` [Example 117, 4-{[(4-Ethoxy-benzenesulfonyl)-pyridin-2-ylmethyl-amino]-methyl}-N-[(1S,5R,6S)-3-(4-trifluoromethoxy-benzoyl)-3-aza-bicyclo[3.1.0]hex-6-yl]-benzamide], the IC50 was 0.8 µM.

For the compound `CCOc1ccc(C2(NC(=O)c3ccc(CN(Cc4ccccn4)S(=O)(=O)c4ccc(Cl)cc4)cc3)CC2)cc1` [Example 128], the IC50 stood at 0.85 µM.

For the compound `CCOc1ccc(C2(NC(=O)c3ccc(CN(Cc4ccccn4)S(=O)(=O)c4ccc(C#N)cc4)cc3)CC2)cc1` [Example 129], the IC50 stood at 2.5 µM.

Consider `CCOc1ccc(C2(NC(=O)c3ccc(CN(Cc4ccccn4)S(=O)(=O)c4ccc(OCC)cc4)cc3)CC2)cc1` [Example 130], for which the IC50 came to 3 µM.

For `O=C(NC1(c2ccc(OC(F)(F)F)cc2)CC1)c1ccc(CN(Cc2ccccn2)S(=O)(=O)c2ccc(Cl)cc2)cc1` [Example 131], the IC50 was 5 µM.

With `O=C(O)c1ccc(CNC(=O)c2ccc(CN(Cc3ccccn3)S(=O)(=O)c3ccc(Cl)cc3)cc2)cc1` [Example 133], the IC50 is 2 µM.

With `Cc1ccc(S(=O)(=O)N(Cc2ccc(-c3nnn[nH]3)cc2)Cc2ccccn2)cc1` [Example 139], the IC50 turned out to be 2 µM.

In the case of `O=[N+]([O-])c1ccc(S(=O)(=O)N(Cc2ccc(-c3nnn[nH]3)cc2)Cc2ccccn2)cc1` [Example 140], the IC50 is 2 µM.

For the compound `CC(C)(C)c1ccc(S(=O)(=O)N(Cc2ccc(-c3nnn[nH]3)cc2)Cc2ccccn2)cc1` [Example 141], the IC50 was found to be 3 µM.

Turning to `CCOC(=O)C1(NC(=O)c2ccc(CN(Cc3ccccn3)S(=O)(=O)c3ccc(C#N)cc3)cc2)CC1` [Example 144], the IC50 worked out at 0.14 µM.

`CN(C)c1ccc(CNC(=O)c2ccc(CN(Cc3ccccn3)S(=O)(=O)c3ccc(C#N)cc3)cc2)cn1` [Example 148]: the IC50 was 3 µM.

For `O=C(NC(C(=O)O)c1ccccc1)c1ccc(CN(Cc2ccccn2)S(=O)(=O)c2ccc(Cl)cc2)cc1` (stereo not shown) [Example 151], the IC50 stood at 0.15 µM.

As for `O=C(N[C@H](C(=O)O)c1ccccc1)c1ccc(CN(Cc2ccccn2)S(=O)(=O)c2ccc(Cl)cc2)cc1` [Example 152], the IC50 turned out to be 0.75 µM.

Consider `O=C(N[C@H](Cc1ccccc1)C(=O)O)c1ccc(CN(Cc2ccccn2)S(=O)(=O)c2ccc(Cl)cc2)cc1` [Example 153], for which the IC50 is 2 µM.

On to `O=C(N[C@@H](Cc1ccc(O)cc1)C(=O)O)c1ccc(CN(Cc2ccccn2)S(=O)(=O)c2ccc(Cl)cc2)cc1` [Example 154], for which the IC50 was 4 µM.

`CCOC(=O)c1ccc(CN(Cc2cccnc2)S(=O)(=O)c2ccc(OCC)cc2)cc1` [Example 155]: the IC50 is 2 µM.

As for `CCOC(=O)c1ccc(CN(Cc2cccnc2)S(=O)(=O)c2ccc(C#N)cc2)cc1` [Example 156], the IC50 was 1.9 µM.

As for `CCOC(=O)c1ccc(CN(Cc2cccnc2)S(=O)(=O)c2ccc(Cl)cc2)cc1` [Example 159], the IC50 is 4 µM.

`O=S(=O)(c1cccc(Oc2ccccc2)c1)N(Cc1ccc(-c2nnn[nH]2)cc1)Cc1ccccn1` [Example 165]: the IC50 was 1.1 µM.

Regarding `C[C@H](c1ccc(NC(=O)C2(c3ccccc3)CC2)cc1)N(Cc1ccccn1)S(=O)(=O)c1ccc(Cl)cc1` [Example 168], the IC50 came out at 3.33 µM.

Source of the values: patent US20110028509A1, “Sulfonamides” (MERCK SERONO SA, priority 2008, published 2011).
